Test results as given in patent US20150273013A1, “AGONISTS OF GUANYLATE CYCLASE USEFUL FOR THE TREATMENT OF GASTROINTESTINAL DISORDERS, INFLAMMATION, CANCER AND OTHER DISORDERS” (Synergy Pharmaceuticals, Inc., priority 2014, published 2015).
Bridges are numbered along the chain shown (N, C = ends). Where no end group is shown, it is not given here. [ ]: non-standard residue; d: D form.

Legend:
[1] = tested on: colitis in murine models; details: oral treatment, Shailubhai et al. 2009; cited from earlier work
[2] = tested on: inflammatory (TNBS) induced hypersensitivity to colorectal distension (CRD); test: TNBS (inflammatory) induced hypersensitivity to colorectal distension, oral treatment; format: in vivo, rat; details: for colonic wall elasticity / number of abdominal contractions in response to CRD: TNBS model, oral doses of 0.01 and 0.05 mg/kg; for number of abdominal contractions in response to CRD: intracolonic distension pressures between 15 and 60 mm Hg; for colonic volume adaptation to increasing pressure: after TNBS instillation, pressures between 15 and 60 mm Hg
Procedure: (§1) Oral Treatment with Plecanatide and Sp-333, Agonists of Guanylate Cyclase-C, Attenuates Visceral Hypersensitivity in Rat Models
(§2) Oral treatment with plecanatide (Asn Asp Glu Cys Glu Leu Cys Val Asn Val Ala Cys Thr Gly Cys Leu) or SP-333 (dAsn Asp Glu Cys Glu Leu Cys Val Asn Val Ala Cys Thr Gly Cys dLeu), homologues of UG, was evaluated in rodent models of inflammatory (TNBS) and non-inflammatory partial restraint stress induced hypersensitivity to colorectal distension (CRD).

[3] = tested on: non-inflammatory partial restraint stress induced hypersensitivity to colorectal distension (CRD); test: Partial restraint stress induced hypersensitivity to colorectal distension, oral treatment; format: in vivo, rat; details: partial restraint stress model, oral doses of 0.01 and 0.05 mg/kg; for number of abdominal contractions in response to CRD: intracolonic distension pressures between 15 and 60 mm Hg
Procedure: as §1, §2

Substance | effect on colitis [1] | colonic wall elasticity [2] | number of abdominal contractions in response to CRD [2] | colonic volume adaptation to increasing pressure [2] | colonic wall elasticity [3] | number of abdominal contractions in response to CRD [3]
dAsn Asp Glu Cys Glu Leu Cys Val Asn Val Ala Cys Thr Gly Cys dLeu ([dN]DECELCVNVACTGC[dL]; disulfide 4-12, 7-15) [SP-333, GC-C agonist, homologue of uroguanylin, (C4:C12, C7:C15) bicycle peptide] | ameliorate colitis | without significantly altering | effectively reduced | reduced | without significantly altering | effectively reduced
Asn Asp Glu Cys Glu Leu Cys Val Asn Val Ala Cys Thr Gly Cys Leu (NDECELCVNVACTGCL; disulfide 4-12, 7-15) [plecanatide, GC-C agonist, homologue of uroguanylin, (C4:C12, C7:C15) bicycle peptide] | ameliorate colitis | without significantly altering | effectively reduced | reduced | without significantly altering | effectively reduced
